Laboratory results reported in patent US6461997B1, “Triazole sulfones having herbicidal activity” (Monsanto Technology LLC, priority 1999, dated 2002).

Key:
[1] = test system: BRAPP (broadleaf signalgrass); assay: Pre-emergence herbicidal activity, warm season; type: in vivo, Brachiaria platyphylla; conditions: GR80 = lowest tested rate (300, 100, 30, 10 g/ha) with 80% or greater inhibition; approx. 14 days after treating; 30/21° C.
Outline: (§1)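 Seeds sown in sterilised fertilised topsoil received surface-applied compound in 50:50 acetone/water, typically at 300, 100, 30 and 10 g/ha, then greenhouse-grown at 30/21° C (warm-season species) or 18/13° C (cool-season species). Percent inhibition versus untreated plants was scored at about 14 days, giving GR80; an asterisk marks activity short of 80% at the top rate.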

[2] = test system: GALAP (catchweed bedstraw); assay: Pre-emergence herbicidal activity, cool season; type: in vivo, Galium aparine; conditions: lowest tested rate with 80% or greater inhibition; rates 300, 100, 30, 10 g/ha; about 14 days
Outline: (§2)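 GR80 values derive from percent inhibition relative to untreated plants, read roughly 14 days after sowing and pre-emergence soil-surface treatment (compound in 50:50 acetone/water; rates typically 10, 30, 100, 300 g/ha). Warm-season weeds grew at 30/21° C day/night, cool-season ones at 18/13° C; an asterisk marks activity without reaching 80% at the highest rate.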

[3] = test system: AEGCY (jointed goatgrass); assay: Post-emergence herbicidal activity, cool season; type: in vivo, Aegilops cylindrica; conditions: abraded plants sprayed at 300, 100, 30 and 10 g/ha; about 14 days after treatment
Procedure: (§3) In another set of tests, the post-emergence activity of compounds of this invention was evaluated on the cool season species listed above. The following procedure was used.
(§4) A pre-prepared topsoil mixture (described above) was placed in a pot and compacted to a depth of 1.0 to 1.25 cm from the top of the pot. Seeds of each of several monocotyledonous and dicotyledonous annual plant species were placed on top of the soil. The seeds were covered with a mixture of 50% topsoil and 50% Rediearth™ in sufficient quantity to level-fill the pots. The pots were then placed on a greenhouse bench and subirrigated as needed.
(§5) When plants growing from the seeds had emerged and reached a suitable growth stage for post-emergence treatment, typically 9 to 14 days after planting, above-ground parts of the plants were subjected to a pre-treatment involving abrasion to create greater opportunity for foliar uptake of subsequently applied compounds. Abrasion was performed using garnet 200w particles applied with a Sears Craftsman hand-held sandblaster operated at approximately 850 kPa (50 psig) pressure.
(§6) A known amount of each test compound dissolved or suspended in an appropriate organic solvent was diluted with a 50:50 mix of acetone and water and applied to the plants by spraying with a standard spray nozzle in a spray volume of […] at a spray pressure of 511 kPa (30 psig). Only the compounds of Examples 1, 8-15 and 17-22 were included in post-emergence tests. Application rates for these compounds were 300, 100, 30 and 10 g/ha. Control plants were abraded but not sprayed.
(§7) After treatment the plants were placed in a greenhouse with an 18/13° C. day/night temperature regime and were subsequently watered as needed for growth. Approximately 14 days after treatment, the plants were observed and herbicidal efficacy recorded as percent inhibition by comparison with control plants. GR80 values were assigned for each compound as described above for the pre-emergence tests.

BROTE (downy brome) = assay: Post-emergence herbicidal activity, cool season; type: in vivo, Bromus tectorum; conditions: abraded plants sprayed at 300, 100, 30 and 10 g/ha; about 14 days after treatment
Procedure: as §3, §4, §5, §6, §7

ALOMY (blackgrass) = assay: Post-emergence herbicidal activity, cool season; type: in vivo, Alopecurus myosuroides; conditions: abraded plants sprayed at 300, 100, 30 and 10 g/ha; about 14 days after treatment
Procedure: as §3, §4, §5, §6, §7

AVEFA (wild oat) = assay: Post-emergence herbicidal activity, cool season; type: in vivo, Avena fatua; conditions: abraded plants sprayed at 300, 100, 30 and 10 g/ha; about 14 days after treatment
Procedure: as §3, §4, §5, §6, §7

[4] = test system: AGSST (creeping bentgrass); assay: Pre-emergence herbicidal activity, cool season; type: in vivo, Agrostis stolonifera; conditions: GR80 = lowest tested rate (300, 100, 30, 10 g/ha) with 80% or greater inhibition; approx. 14 days after treating; 18/13° C.
Outline: as §2

ECHCG (barnyardgrass) = assay: Pre-emergence herbicidal activity, warm season; type: in vivo, Echinochloa crus-galli; conditions: GR80 = lowest tested rate (300, 100, 30, 10 g/ha) with 80% or greater inhibition; approx. 14 days after treating; 30/21° C.
Outline: as §1

[5] = test system: AGRRE (quackgrass (seedling)); assay: Post-emergence herbicidal activity, cool season; type: in vivo, Elymus repens; conditions: abraded plants sprayed at 300, 100, 30 and 10 g/ha; about 14 days after treatment
Procedure: as §3, §4, §5, §6, §7

[6] = test system: GALAP (catchweed bedstraw); assay: Post-emergence herbicidal activity, cool season; type: in vivo, Galium aparine; conditions: abraded plants sprayed; GR80 = lowest tested rate (300, 100, 30, 10 g/ha) with 80% or greater inhibition; approx. 14 days after treatment; 18/13° C.
Procedure: as §3, §4
When plants growing from the seeds had emerged and reached a suitable growth stage for post-emergence treatment, typically 9 to 14 days after planting, above-ground parts of the plants were subjected to a pre-treatment involving abrasion to create greater opportunity for foliar uptake of subsequently applied compounds. Abrasion was performed using garnet 200w particles applied with a Sears Craftsman hand-held sandblaster operated at approximately 850 kPa (50 psig) pressure. […]
After treatment the plants were placed in a greenhouse with an 18/13° C. day/night temperature regime and were subsequently watered as needed for growth. Approximately 14 days after treatment, the plants were observed and herbicidal efficacy recorded as percent inhibition by comparison with control plants. […]

STEME (common chickweed) = assay: Pre-emergence herbicidal activity, cool season; type: in vivo, Stellaria media; conditions: lowest tested rate with 80% or greater inhibition; rates 300, 100, 30, 10 g/ha; about 14 days
Outline: as §2

SINAR (wild mustard) = assay: Pre-emergence herbicidal activity, cool season; type: in vivo, Sinapis arvensis; conditions: lowest tested rate with 80% or greater inhibition; rates 300, 100, 30, 10 g/ha; about 14 days
Outline: as §2

SETVI (green foxtail) = assay: Post-emergence herbicidal activity, cool season; type: in vivo, Setaria viridis; conditions: abraded plants sprayed at 300, 100, 30 and 10 g/ha; about 14 days after treatment
Procedure: as §3, §4, §5, §6, §7

SASKR (russian thistle) = assay: Pre-emergence herbicidal activity, cool season; type: in vivo, Salsola kali; conditions: lowest tested rate with 80% or greater inhibition; rates 300, 100, 30, 10 g/ha; about 14 days
Outline: as §2

[7] = test system: LAMPU (purple deadnettle); assay: Pre-emergence herbicidal activity, cool season; type: in vivo, Lamium purpureum; conditions: lowest tested rate with 80% or greater inhibition; rates 300, 100, 30, 10 g/ha; about 14 days
Outline: as §2

[8] = test system: PANMI (wild proso millet); assay: Pre-emergence herbicidal activity, warm season; type: in vivo, Panicum miliaceum; conditions: GR80 = lowest tested rate (300, 100, 30, 10 g/ha) with 80% or greater inhibition; approx. 14 days after treating; 30/21° C.
Outline: (§8)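 Under 18/13 °C (ALOMY, POLCO) or 30/21 °C (PANMI, DIGSA) day/night, pre-emergence soil-surface treatments at 300, 100, 30 and 10 g/ha were evaluated after roughly 14 days. GR80 reflects percent inhibition relative to untreated plants.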

[9] = test system: VERPE (creeping speedwell); assay: Pre-emergence herbicidal activity, cool season; type: in vivo, Veronica persicaria; conditions: lowest tested rate with 80% or greater inhibition; rates 300, 100, 30, 10 g/ha; about 14 days
Outline: as §2

POLCO (wild buckwheat) = assay: Pre-emergence herbicidal activity, cool season; type: in vivo, Polygonum convolvulus; conditions: lowest tested rate with 80% or greater inhibition; rates 300, 100, 30, 10 g/ha; about 14 days
Outline: as §8

LOLMG (annual ryegrass) = assay: Post-emergence herbicidal activity, cool season; type: in vivo, Lolium multiflorum; conditions: abraded plants sprayed at 300, 100, 30 and 10 g/ha; about 14 days after treatment
Procedure: as §3, §4, §5, §6, §7

[10] = test system: AGSST (creeping bentgrass); assay: Post-emergence herbicidal activity, cool season; type: in vivo, Agrostis stolonifera; conditions: abraded plants sprayed at 300, 100, 30 and 10 g/ha; about 14 days after treatment
Procedure: as §3, §4, §5, §6, §7

SORVU (shattercane) = assay: Pre-emergence herbicidal activity, warm season; type: in vivo, Sorghum vulgare; conditions: GR80 = lowest tested rate (300, 100, 30, 10 g/ha) with 80% or greater inhibition; approx. 14 days after treating; 30/21° C.
Outline: as §1

`CCN(CC)C(=O)n1cnc(S(=O)(=O)C(F)(F)SCCO)n1` [Example 12, 1-(N,N-diethylcarbamoyl)-3-[(2-hydroxyethylthio)difluoromethylsulfonyl]-1,2,4-triazole] was tested, and the “Pre-emergence activity (GR80) BRAPP” value [1] was “* (activity observed, at least at highest rate, but <80% inhibition)”, the “Pre-emergence activity GR80, GALAP” value [2] was “[empty]” and the “Post-emergence activity GR80, AEGCY” value [3] was “[empty]”. The “Post-emergence activity GR80, BROTE” value (BROTE (downy brome)) was “[empty]”, the “Post-emergence activity GR80, ALOMY” value (ALOMY (blackgrass)) was “[empty]” and the “Post-emergence activity GR80, AVEFA” value (AVEFA (wild oat)) was “[empty]”. For the same compound, the “Pre-emergence activity (GR80) AGSST” value [4] was 300 g/ha, the “Pre-emergence activity (GR80) ECHCG” value (ECHCG (barnyardgrass)) was “* (activity observed, at least at highest rate, but <80% inhibition)” and the “Post-emergence activity GR80, AGRRE” value [5] was “[empty]”. For the same compound, the “Post-emergence activity (GR80) GALAP” value [6] was 300 g/ha, the “Pre-emergence activity GR80, STEME” value (STEME (common chickweed)) was 300 g/ha and the “Pre-emergence activity GR80, SINAR” value (SINAR (wild mustard)) was “[empty]”. The “Post-emergence activity GR80, SETVI” value (SETVI (green foxtail)) was “[empty]”, the “Pre-emergence activity GR80, SASKR” value (SASKR (russian thistle)) was “[empty]” and the “Pre-emergence activity GR80, LAMPU” value [7] was 300 g/ha. For the same compound, the “Pre-emergence activity (GR80) PANMI” value [8] was “* (activity observed, at least at highest rate, but <80% inhibition)”, the “Pre-emergence activity GR80, VERPE” value [9] was “[empty]” and the “Pre-emergence activity GR80, POLCO” value (POLCO (wild buckwheat)) was “[empty]”. For the same compound, the “Post-emergence activity GR80, LOLMG” value (LOLMG (annual ryegrass)) was “[empty]”, the “Post-emergence activity GR80, AGSST” value [10] was “[empty]” and the “Pre-emergence activity (GR80) SORVU” value (SORVU (shattercane)) was “* (activity observed, at least at highest rate, but <80% inhibition)”.
